One molecule from ChEMBL document CHEMBL4219215, “Discovery of {4-[4,9-bis(ethyloxy)-1-oxo-1,3-dihydro-2H-benzo[f]isoindol-2-yl]-2-fluorophenyl}acetic acid (GSK726701A), a novel EP4 receptor partial agonist for the treatment of pain” (Bioorg Med Chem Lett, 2018) can be followed below.

The target of one data set is Cytochrome P450 2D6 (Homo sapiens, UniProt P10635). The data set is described as follows: Inhibition of human recombinant CYP2D6. Conditions: human, recombinant enzyme. It counts as ADME.
Cytochrome P450 2D6, sequence (P10635 whole entry): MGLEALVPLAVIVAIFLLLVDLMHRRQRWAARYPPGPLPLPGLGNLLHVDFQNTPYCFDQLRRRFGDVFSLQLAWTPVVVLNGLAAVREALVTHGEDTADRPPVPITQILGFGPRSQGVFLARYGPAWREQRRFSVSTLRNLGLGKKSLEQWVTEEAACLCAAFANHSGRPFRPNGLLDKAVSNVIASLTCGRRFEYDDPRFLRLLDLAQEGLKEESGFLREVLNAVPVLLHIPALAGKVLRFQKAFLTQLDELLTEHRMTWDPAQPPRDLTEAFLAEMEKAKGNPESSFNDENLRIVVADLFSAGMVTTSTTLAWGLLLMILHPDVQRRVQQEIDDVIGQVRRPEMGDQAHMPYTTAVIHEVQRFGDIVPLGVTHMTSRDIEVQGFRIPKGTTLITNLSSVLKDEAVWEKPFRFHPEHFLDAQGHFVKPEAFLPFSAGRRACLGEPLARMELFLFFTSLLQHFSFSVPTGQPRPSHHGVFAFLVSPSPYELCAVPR
Data set [1] can be described thus: Intrinsic clearance in rat liver microsomes. It counts as ADME, microsome.
Data set [2] can be described thus: Total drug level in blood of orally dosed rat model of Freund's complete adjuvant-induced acute inflammatory pain assessed as reduction in reversal of hypersensitivity. It counts as ADME, organism-based. Conditions: in vivo, po, read-out: Drug uptake.
Data set [3] relates to Rattus norvegicus. The data set is described as follows: Analgesic activity in rat model of Freund's complete adjuvant-induced acute inflammatory pain assessed as reversal of FCA-induced hypersensitivity at 3 mg/kg, po relative to untreated control. It counts as functional.
The next data set is filed under the species Homo sapiens. The data set is described as follows: Selectivity index, ratio of pIC50 for EP1 receptor (unknown origin) to pEC50 for partial agonist activity at human EP4 receptor expressed in HEK293-AEQ17 cells. It counts as cell-based.
For data set [4], the target named is Prostaglandin E2 receptor EP4 subtype (Homo sapiens, UniProt P35408). As to the kind of experiment: Partial agonist activity at EP4 receptor in human whole blood assessed as inhibition of LPS-induced TNFalpha production. The class given is functional.
Prostaglandin E2 receptor EP4 subtype, sequence (P35408 whole entry): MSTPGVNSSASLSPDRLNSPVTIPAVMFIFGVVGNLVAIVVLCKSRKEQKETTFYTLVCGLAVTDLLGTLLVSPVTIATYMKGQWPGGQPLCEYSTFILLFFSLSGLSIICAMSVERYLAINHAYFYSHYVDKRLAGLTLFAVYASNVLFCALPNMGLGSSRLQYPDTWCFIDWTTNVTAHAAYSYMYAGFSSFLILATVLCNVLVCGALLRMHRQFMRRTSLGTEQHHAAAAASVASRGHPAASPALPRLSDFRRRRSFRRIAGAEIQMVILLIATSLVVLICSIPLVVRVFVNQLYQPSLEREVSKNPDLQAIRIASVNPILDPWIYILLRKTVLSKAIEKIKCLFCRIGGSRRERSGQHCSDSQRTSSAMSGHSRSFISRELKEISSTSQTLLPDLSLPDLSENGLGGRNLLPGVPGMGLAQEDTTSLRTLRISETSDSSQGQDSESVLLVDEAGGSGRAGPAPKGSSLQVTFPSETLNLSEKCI
The target in data set [5] is T1, Prostaglandin E2 receptor EP1 subtype (Homo sapiens, UniProt P34995).
T1 sequence (P34995 whole entry): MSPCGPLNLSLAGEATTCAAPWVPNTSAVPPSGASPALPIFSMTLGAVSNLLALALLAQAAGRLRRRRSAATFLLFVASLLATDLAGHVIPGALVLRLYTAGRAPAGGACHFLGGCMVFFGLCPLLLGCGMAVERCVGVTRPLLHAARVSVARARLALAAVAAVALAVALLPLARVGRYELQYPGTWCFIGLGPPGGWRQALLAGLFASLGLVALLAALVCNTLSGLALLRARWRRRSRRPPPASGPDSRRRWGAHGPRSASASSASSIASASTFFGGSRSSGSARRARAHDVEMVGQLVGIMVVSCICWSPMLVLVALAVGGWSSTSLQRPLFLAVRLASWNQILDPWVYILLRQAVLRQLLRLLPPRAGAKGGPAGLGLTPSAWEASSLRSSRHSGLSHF
The data set is described as follows: Activity at EP1 receptor (unknown origin).

In data set [6] the target is Prostaglandin E2 receptor EP2 subtype (Homo sapiens) (UniProt P43116). As to the kind of experiment: Agonist activity at EP2 receptor (unknown origin) assessed as induction of receptor activation at 1 uM. It counts as functional.
Prostaglandin E2 receptor EP2 subtype (Homo sapiens), sequence (P43116 whole entry): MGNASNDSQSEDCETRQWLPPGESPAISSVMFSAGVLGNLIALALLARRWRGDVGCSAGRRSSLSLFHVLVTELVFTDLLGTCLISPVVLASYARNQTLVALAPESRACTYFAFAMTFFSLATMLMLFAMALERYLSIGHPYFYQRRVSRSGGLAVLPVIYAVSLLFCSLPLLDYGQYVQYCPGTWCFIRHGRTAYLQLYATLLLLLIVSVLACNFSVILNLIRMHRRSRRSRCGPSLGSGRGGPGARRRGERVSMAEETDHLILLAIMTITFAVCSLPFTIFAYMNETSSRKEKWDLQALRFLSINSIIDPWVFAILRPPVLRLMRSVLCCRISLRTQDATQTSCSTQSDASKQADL
Another data set deals with T2, Thromboxane A2 receptor (Homo sapiens, UniProt P21731).
T2 sequence (P21731 whole entry): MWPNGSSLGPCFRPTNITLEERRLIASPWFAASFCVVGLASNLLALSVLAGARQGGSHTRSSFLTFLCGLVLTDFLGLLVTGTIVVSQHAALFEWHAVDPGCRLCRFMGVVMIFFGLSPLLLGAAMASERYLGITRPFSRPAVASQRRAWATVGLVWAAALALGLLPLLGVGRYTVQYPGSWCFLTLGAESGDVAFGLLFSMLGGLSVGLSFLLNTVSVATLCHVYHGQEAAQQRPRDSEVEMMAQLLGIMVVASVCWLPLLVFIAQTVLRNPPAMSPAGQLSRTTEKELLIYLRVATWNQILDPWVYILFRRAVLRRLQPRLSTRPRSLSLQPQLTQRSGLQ
As to the kind of experiment: Activity at TP receptor (unknown origin).

A short description of data set [7]: Half life in orally dosed cynomolgus monkey. The class given is ADME, organism-based, Macaca fascicularis. Conditions: in vivo, po.
The nature of data set [8]: Protein binding in dog plasma. The class given is ADME, cell-free, Canis lupus familiaris. Conditions: read-out: PPB (converted).
Data set [9] concerns Rattus norvegicus. The data set is described as follows: Analgesic activity in rat model of chronic joint pain assessed as reversal of pain by measuring weight bearing level at 1 mg/kg, po dosed twice daily for 5 days relative to untreated control. The class given is functional. Conditions: 120 h.
Data set [10] relates to Rattus norvegicus. The data set is described as follows: Analgesic activity in rat model of chronic constriction injury-induced neuropathic pain assessed as reversal of mechanical allodynia at 3 mg/kg dosed twice daily for 8 days relative to untreated control. It counts as functional. Conditions: 192 h.

As to `CCOc1c2c(c(OCC)c3ccccc13)C(=O)N(c1ccc(CC(=O)O)c(F)c1)C2`, on Cytochrome P450 2D6, the INH is over 100 µM. The molecule further registered a CLH in data set [1] of under 1 mL/min/g. The concentration in data set [2] is 0.6 µM. The Activity with Rattus norvegicus [3] came out at 80%; in data set [6], 14%. Besides, the Selectivity ratio in the data set listed under Homo sapiens is over 100. For the same molecule, in data set [4], the 50% effective concentration (EC50) was 0.00631 µM. Also, the concentration for half-maximal inhibition (IC50) (in data set [5]; at Thromboxane A2 receptor) was over 10 µM each time. This molecule also registered a half-life in [7] of 5 to 10 h. The fraction unbound in [8] was 0.009. Further, the inhibition in vivo at 1 mg/kg with Rattus norvegicus [9] is 100%. Further, the inhibition in vivo at 3 mg/kg in the data set with Rattus norvegicus [10] turned out to be 100%.
